target: Amyloid-beta precursor protein (Homo sapiens, UniProt P05067); assay: Displacement of [125I]IMPY from beta amyloid plaque in brain homogenates; assay type: tissue-based
Sequence (P05067 whole entry): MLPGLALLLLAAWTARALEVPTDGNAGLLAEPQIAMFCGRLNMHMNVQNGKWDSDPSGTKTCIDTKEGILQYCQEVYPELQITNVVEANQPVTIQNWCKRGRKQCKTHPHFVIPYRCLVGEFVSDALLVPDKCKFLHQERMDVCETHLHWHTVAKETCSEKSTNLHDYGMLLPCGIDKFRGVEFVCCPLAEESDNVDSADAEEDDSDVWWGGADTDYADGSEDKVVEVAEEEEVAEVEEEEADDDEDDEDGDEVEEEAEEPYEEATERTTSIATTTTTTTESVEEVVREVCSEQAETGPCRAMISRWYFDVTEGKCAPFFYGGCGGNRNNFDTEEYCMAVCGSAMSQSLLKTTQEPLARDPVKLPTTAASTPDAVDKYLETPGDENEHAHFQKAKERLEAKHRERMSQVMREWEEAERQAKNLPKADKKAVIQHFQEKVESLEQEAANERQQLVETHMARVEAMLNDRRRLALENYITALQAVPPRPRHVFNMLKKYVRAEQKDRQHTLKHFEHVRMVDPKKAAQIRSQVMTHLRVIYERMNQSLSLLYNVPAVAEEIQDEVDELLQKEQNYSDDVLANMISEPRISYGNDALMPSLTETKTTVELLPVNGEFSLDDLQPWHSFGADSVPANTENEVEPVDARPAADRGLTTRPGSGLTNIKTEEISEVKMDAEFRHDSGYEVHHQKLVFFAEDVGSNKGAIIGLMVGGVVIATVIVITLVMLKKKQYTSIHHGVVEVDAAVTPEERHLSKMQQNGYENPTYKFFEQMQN

Structure (SMILES)	Ki [µM]
O=[N+]([O-])c1ccc(-c2ccc(-c3ccc([N+](=O)[O-])cc3)s2)cc1	0.185
COc1ccc(-c2ccc(-c3ccc(N)cc3)s2)cc1	0.0056
Oc1ccc(-c2ccc(-c3ccc(O)cc3)s2)cc1	0.004
Nc1ccc(-c2ccc(-c3ccc(O)cc3)s2)cc1	0.0096
CN(C)c1ccc(-c2ccc(-c3ccc(O)cc3)s2)cc1	0.0075
COc1ccc(-c2ccc(-c3ccc(OC)cc3)s2)cc1	0.108
CSc1ccc(-c2ccc(-c3ccc(SC)cc3)s2)cc1	> 1

The remaining molecules from weak to strong by Ki, led by results:

Ki [µM]	Structure (SMILES)
0.625	COc1ccccc1-c1ccc(-c2ccccc2OC)s1
0.5	COc1ccc(-c2ccc(-c3ccc(N(C)C)cc3)s2)cc1
0.0312	CNc1ccc(-c2ccc(-c3ccc(O)cc3)s2)cc1
0.0215	COc1ccc(-c2ccc(-c3ccc(NCCF)cc3)s2)cc1
0.0185	COc1ccc(-c2ccc(-c3ccc([N+](=O)[O-])cc3)s2)cc1
0.0061	COc1ccc(-c2ccc(-c3ccc(O)cc3)s2)cc1
0.0061	Nc1ccc(-c2ccc(-c3ccc(N)cc3)s2)cc1
0.0039	Oc1ccc(-c2ccc(-c3ccc(NCCF)cc3)s2)cc1
